Experimental data taken from patent publication US20080092250A1, “Activity-induced pain in animal model of osteoarthritis” (priority 2006, published 2008).
Like-named read-outs stand apart in the source and are kept apart here.

What was measured:
[1] = test system: osteoarthritic rats (unilateral i.a. MIA injection); assay: Hind limb grip force (activity-induced pain) 20 days after i.a. MIA injection; assay type: in vivo, rat
Experimental: For evaluating the effects of reference analgesic drugs experiments were performed 20 days after induction of OA. Assessment of hind limb grip force was used as a behavioral measure of activity induced pain in adult OA rodents. Measurements of peak hind limb grip force were conducted by recording the maximum compressive force exerted on the hind limb strain gauge setup, in a commercially available grip force measurement system (Columbus Instruments, Columbus, Ohio). A group of age matched naïve animals were added to each experiment and the data obtained from the different dose groups for the compound being tested were compared to the naïve group.
(§1) All experiments have been approved by the Institutional Animal Care and Use Committee (IACUC) at Abbott Laboratories and are in strict accordance with the ethical guidelines laid down by the International Association for the Study of Pain (IASP) (Zimmermann, 1983) for the care and use of laboratory animals. […] Following injection, the animals were allowed to recover from the effects of anesthesia (usually 5-10 mins) before returning to their home cages. […] Animals were euthanized by CO2 inhalation on day 20. The injected knee joints were dissected and immediately fixed in 10% phosphate buffered formalin. The samples were then decalcified in 5% formic acid for 3 days, routinely processed and then embedded in paraffin wax. Frontal histologic sections of the femorotibial joints (6 μm) were prepared, stained with toluidine-blue and examined with a light microscope (Guzman et al., 2003).
(§2) Measurements of peak hind limb grip force were conducted by recording the maximum compressive force exerted on the hind limb strain gauge setup, in a commercially available grip force measurement system (Columbus Instruments, Columbus, Ohio). […] Additional tests were performed 1, 2, 4, 7, 10, 13, 17, 21, 24, and 28 days following the injections.
A group of age matched naïve animals were added to each experiment and the data obtained from the different dose groups for the compound being tested were compared to the naïve group. The vehicle control group for each compound being tested was assigned 0% whereas the naïve group was assigned as being 100% (normal). The % effects for each dose group was then expressed as % return to normalcy compared to the naïve group (=[100÷% increase from vehicle for naive group]×% increase from vehicle for treatment group) (% increase from vehicle=[Treatment CFmax−Vehicle CFmax)/Vehicle CFmax]×100). All experiments evaluating drug effects in this model were conducted in a randomized blinded fashion.

naïve rats = assay: Hind limb grip force in naïve (non-MIA injected) rats
Experimental: as §2

rats = details: 28 days after unilateral i.a. injection, 3 mg; baseline 1090.17±52.85 g
Experimental: as §1, §2

[2] = Rattus norvegicus, po, 480 h; read-out: % effect (% return to normalcy of grip force)
[3] = Rattus norvegicus, po, 480 h; read-out: CI95% of ED50
[4] = Rattus norvegicus, po, 480 h; read-out: ED50, reversal of decreased grip force

Q: With `Nc1nnc(-c2cccc(Cl)c2Cl)c(N)n1` [Lamotrigine, lamotrigine] as the compound, how does the inhibition in vivo at 100 µmol/kg [1, 2] read?
A: 30 ± 3%

Q: For `CC(=O)Nc1ccc(O)cc1` [acetaminophen], which inhibition in vivo at 300 µmol/kg [1, 2] is on record?
A: 23 ± 11%

Q: With `Cc1ccc(-c2cc(C(F)(F)F)nn2-c2ccc(S(N)(=O)=O)cc2)cc1` [celecoxib] as the compound, how does the “% effect, chronic dosing” value ([1]; 10 μmol/kg p.o. b.i.d. for 12 days beginning 7 days after MIA) read?
A: 33±3.0%

Q: What about the “% effect, acutely dosed group of chronic study” value ([1]; 10 μmol/kg p.o., acute) of the same compound?
A: 9±3%

Q: What about the “% effect, chronic dosing” value ([1]; 30 μmol/kg p.o. b.i.d. for 12 days beginning 7 days after MIA) of the same compound?
A: 67±3%

Q: And the “% effect, acutely dosed group of chronic study” value ([1]; 30 μmol/kg p.o., acute)?
A: 42±3%

Q: And the “% effect, acute positive control of chronic study” value ([1]; 100 μmol/kg p.o., acute)?
A: 88±4%

Q: And the inhibition in vivo at 100 µmol/kg [1, 2]?
A: 87 ± 6%

Q: What about the ED50 [1, 3] of the same compound?
A: 16 to 42 µmol/kg

Q: And the ED50 [1, 4]?
A: 27 µmol/kg

Q: With `O=C(O)Cc1ccccc1Nc1c(Cl)cccc1Cl` [diclofenac] as the compound, how does the inhibition in vivo at 100 µmol/kg [1, 2] read?
A: 77 ± 5%

Q: What about the ED50 [1, 3] of the same compound?
A: 22 to 38 µmol/kg

Q: What about the ED50 [1, 4] of the same compound?
A: 29 µmol/kg

Q: With `NCC1(CC(=O)O)CCCCC1` [gabapentin] as the compound, how does the inhibition in vivo at 500 µmol/kg ([1]; Rattus norvegicus, po, 480 h, read-out: % effect (% return to normalcy of grip force)) read?
A: 61 ± 8%

Q: And the ED50 ([1]; Rattus norvegicus, po, 480 h, read-out: CI95% of ED50)?
A: 100 to 295 µmol/kg

Q: What about the ED50 ([1]; Rattus norvegicus, po, 480 h, read-out: ED50, reversal of decreased grip force) of the same compound?
A: 159 µmol/kg

Q: For `CC(C)Cc1ccc(C(C)C(=O)O)cc1` (stereo not shown) [ibuprofen], which inhibition in vivo at 300 µmol/kg [1, 2] is on record?
A: 29 ± 8%

Q: How did the inhibition in vivo at 85 µmol/kg [1, 2] turn out when `COc1ccc2c(c1)c(CC(=O)O)c(C)n2C(=O)c1ccc(Cl)cc1` [indomethacin] was run?
A: 44 ± 6%

Q: What does the source list for `CN1CC[C@]23c4c5ccc(O)c4O[C@H]2[C@@H](O)C=C[C@H]3[C@H]1C5` [morphine]?
A: inhibition in vivo at 8 µmol/kg ([1]; Rattus norvegicus, sc, 480 h, read-out: % effect (% return to normalcy of grip force)): 34 ± 3%; reduction of grip force vs untreated naïve rats (naïve rats; 8 μmol/kg (6 mg/kg) s.c.): 13±3%; reduction of grip force vs untreated naïve rats (naïve rats; 13 μmol/kg (10 mg/kg) s.c.): 52±3%

Q: Which results are given for `COc1cccc(C2(O)CCCCC2CN(C)C)c1` (stereo not shown) [tramadol]?
A: inhibition in vivo at 100 µmol/kg ([1]; Rattus norvegicus, ip, 480 h, read-out: % effect (% return to normalcy of grip force)): 79 ± 5%; ED50 ([1]; Rattus norvegicus, ip, 480 h, read-out: CI95% of ED50): 32 to 54 µmol/kg; ED50 ([1]; Rattus norvegicus, ip, 480 h, read-out: ED50, reversal of decreased grip force): 40 µmol/kg

Q: Which “hind limb grip force (GF)” value (rats) does the source give for sodium monoiodoacetate [MIA] here?
A: 420.96 ± 25.07 g
